From patent US20250134870A1, “PATHWAY MODULATOR, PHARMACEUTICAL COMPOSITION HAVING SAME, USE THEREOF, AND THERAPEUTIC METHOD USING SAME” (Jiangsu Yahong Meditech Co., Ltd., priority 2021, published 2025)

Experiments:
[1] = test system: peripheral blood cells; assay: Bleomycin-induced skin fibrosis in mice: blood routine test of peripheral blood (Example 5); assay type: in vivo, male C57BL/6 mice
Protocol: Animals were weighed at the experimental endpoints and the body weight was recorded to calculate the volume of administration. 6 h after dosing, firstly, whole blood was collected from the orbital venous plexus of mice and subjected to blood routine test using an automated Hematology analyzer (Sysmex XS-800i). The specific test steps were as follows: the blood sample in the test tube was thoroughly mixed before testing; the sample was placed under the sampling needle, then injected by pressing the start button, and removed after indicator light of the instrument was off; the instrument started to automatically test the sample and output the results.

[2] = Body weight and weight change rate of EAU rats (Example 6); assay type: in vivo, Lewis rats
From the text: Wherein, Day 0 referred to the day of immunization. The body weight of each rat was monitored twice a week after immunization.
Dosing started from Day 0 accurately according to the animal body weight for a total of 16 days.

[3] = test system: NMO-IgG-induced neuromyelitis optica; assay: NMO-IgG-induced neuromyelitis optica (NMO) in mice: AQP4, GFAP, IBA1, CD45 (Example 7); assay type: in vivo, C57 mice; conditions: 50 and 100 mg/kg PO QD × 10 days
Protocol: 1) C57 female mice (6 to 8 weeks old) were anesthetized with intraperitoneal injection of 5% chloral hydrate (70 μL/10 g).
2) Fur of the top of head was removed to expose the scalp. The mouse head was fixed on the brain stereotaxic apparatus, keeping the top of the skull horizontal. The scalp was disinfected with iodophor.
3) The scalp was cut lengthwise for about 0.5 cm to search for the anterior and posterior fontanelle areas. The stereotaxic caliper was rotated to move the needle tip of trace syringe to the anterior and posterior fontanelle areas, and the mouse skull was kept horizontal by observing the distance from Bregma and Lambda to the needle tip. After horizontal adjustment, the needle tip was moved to Bregma and then moved 2 mm to the right to reach the position.
4) The position on the surface of the mouse skull was marked and a hole was drilled at this point with a skull drill. During drilling, blood vessels should be avoided and drilling should be continued carefully to avoid damaging the duramater and brain tissue.
5) The trace syringe was vertically introduced into the mouse brain tissue using the stereotaxic apparatus with a vertical needle depth of 3 mm. The syringe was kept in place and maintained for 5 min.
6) The syringe pump was turned on, the Infuse Only mode was selected, and the solution (2 μL NMO-IgG+3 μL human complement+5 μL PBS/drug, mixed and pipetted well in advance, and placed on ice) was injected at a speed of […].
7) After the injection was completed, the syringe was maintained for 10 min. The syringe was slowly pulled upward by rotating the caliper, and maintained for 5 min after moving 1 mm upward, until the syringe was completely pulled out. The skin was sutured and disinfected again with iodophor.
Dosing started 3 days before model establishment and lasted until 7 days after model establishment, for 10 consecutive days.
On Day 8 after model establishment (i.e., the day after the last dose), the experimental mice were euthanized and brain tissue was collected for frozen sections. Then, the immune response area of astrocyte markers in each group of mice was determined and evaluated (see the reference Ye Gong et al., Journal of Neuroinflammation, 17 (1). doi:10.1186/s12974-020-01874-6 for experimental methods).

[4] = test system: 2,4-dinitrobenzenesulfonic acid (DNBS)-induced colitis; assay: DNBS-induced enteritis/colitis in rats: body weight and stool score (Example 10); assay type: in vivo, Wistar rats; conditions: 3, 10 and 30 mg/kg
Protocol: The 90 animals were randomly grouped on Day-1 (i.e., the day before the experiment) based on animal body weight to ensure that the body weight of each group of animals were similar, so as to reduce bias. Rats were fasted for 40 hours before the experiment and were injected subcutaneously with 5% glucose saline (10 mL/kg, once daily) during fasting. • Experimental grouping:
On Day 1 of the experiment, fasting rats were anesthetized by intraperitoneal injection with Zoletil (25 mg/kg Tiletamine and 25 mg/kg Zolazepam) and 5 mg/kg Xylazine.
In groups G2-G6, a hose was inserted from the anus to left colic flexure (about 8 cm from the anus) and colitis was induced by DNBS enema (0.5 mL/animal) in rats. The normal control group (G1) received 30% ethanol enema by the same process. The head of the animal after enema was lowered for 15 min, and then the animal was kept in Trendelenburg position until waked to avoid backflow of the enema fluid.
The percentage of body weight was calculated according to the following formula: (body weight on Day X-initial weight)/initial weight]×100%.
(2) Stool score: during the experiment, the stool state of rats was scored daily (0=normal, 1=wet/sticky, 2=loose, 3=liquid).

[5] = test system: 2,4-dinitrobenzenesulfonic acid (DNBS)-induced colitis; assay: DNBS-induced colitis in rats: pathological score of colon tissue (H&E); assay type: in vivo, Wistar rats
From the text: The proximal, ulcer (corresponding sites can be taken, if there was no ulcer) and distal parts of the colon tissue fixed by neutral buffered formalin were embedded with paraffin, sectioned (thickness 5 μm), and histopathological score was given by H&E staining.

[6] = test system: cocaine dependence; conditions: used in combination with cocaine; cited from earlier work
[7] = 100 mg/kg PO QD, 28 days (Test group 3#) vs solvent group
[8] = mean, G5 Test group 2#, 10 mg/kg PO QD × 7

For `NCc1c[nH]c(=S)n1[C@H]1CCc2c(F)cc(F)cc2C1` [Nepicastat], the “lymphocytes in peripheral blood” value [1, 7] was “significant differences in reducing”, the “monocytes in peripheral blood” value [1, 7] was “significant differences in reducing” and the “neutrophils in peripheral blood” value [1, 7] was “significant differences in reducing”. For the same compound, the “number of increased inflammatory cells in peripheral blood after bleomycin stimulation” value ([1]; 50 and 100 mg/kg PO QD, 28 days (Test groups 2#, 3#)) was “reduce the number of increased inflammatory cells in peripheral blood”, the “Rat body weight” value ([2]; Day 2, 25 mg/kg PO QD) was 193.95 g and the “Weight change rate (%)” value ([2]; Day 2, 25 mg/kg PO QD) was 3.25%. For the same compound, the “Rat body weight” value ([2]; Day 2, 50 mg/kg PO QD) was 194.04 g, the “Weight change rate (%)” value ([2]; Day 2, 50 mg/kg PO QD) was 2.53% and the “Rat body weight” value ([2]; Day 2, 100 mg/kg PO QD) was 194.02 g. For the same compound, the “Weight change rate (%)” value ([2]; Day 2, 100 mg/kg PO QD) was 2.11%, the “Rat body weight” value ([2]; Day 6, 25 mg/kg PO QD) was 204.67 g and the “Weight change rate (%)” value ([2]; Day 6, 25 mg/kg PO QD) was 7.06%. The “Rat body weight” value ([2]; Day 6, 50 mg/kg PO QD) was 202.28 g, the “Weight change rate (%)” value ([2]; Day 6, 50 mg/kg PO QD) was 6.90% and the “Rat body weight” value ([2]; Day 6, 100 mg/kg PO QD) was 205.97 g. For the same compound, the “Weight change rate (%)” value ([2]; Day 6, 100 mg/kg PO QD) was 8.45%, the “Rat body weight” value ([2]; Day 9, 25 mg/kg PO QD) was 207.81 g and the “Weight change rate (%)” value ([2]; Day 9, 25 mg/kg PO QD) was 9.26%. The “Rat body weight” value ([2]; Day 9, 50 mg/kg PO QD) was 206.07 g, the “Weight change rate (%)” value ([2]; Day 9, 50 mg/kg PO QD) was 8.83% and the “Rat body weight” value ([2]; Day 9, 100 mg/kg PO QD) was 214.36 g. For the same compound, the “Weight change rate (%)” value ([2]; Day 9, 100 mg/kg PO QD) was 12.84%, the “Rat body weight” value ([2]; Day 13, 25 mg/kg PO QD) was 214.28 g and the “Weight change rate (%)” value ([2]; Day 13, 25 mg/kg PO QD) was 12.23%. The “Rat body weight” value ([2]; Day 13, 50 mg/kg PO QD) was 216.20 g, the “Weight change rate (%)” value ([2]; Day 13, 50 mg/kg PO QD) was 14.24% and the “Rat body weight” value ([2]; Day 13, 100 mg/kg PO QD) was 223.98 g. The “Weight change rate (%)” value ([2]; Day 13, 100 mg/kg PO QD) was 17.96%, the “Rat body weight” value ([2]; Day 16, 25 mg/kg PO QD) was 219.00 g and the “Weight change rate (%)” value ([2]; Day 16, 25 mg/kg PO QD) was 12.36%. For the same compound, the “Rat body weight” value ([2]; Day 16, 50 mg/kg PO QD) was 218.42 g, the “Weight change rate (%)” value ([2]; Day 16, 50 mg/kg PO QD) was 15.41% and the “Rat body weight” value ([2]; Day 16, 100 mg/kg PO QD) was 227.40 g. For the same compound, the “Weight change rate (%)” value ([2]; Day 16, 100 mg/kg PO QD) was 19.77%, the “Rat body weight” value ([2]; Day −1, 25 mg/kg PO QD) was 188.31 g and the “Weight change rate (%)” value ([2]; Day −1, 25 mg/kg PO QD) was 0.00%. The “Rat body weight” value ([2]; Day −1, 50 mg/kg PO QD) was 189.34 g, the “Weight change rate (%)” value ([2]; Day −1, 50 mg/kg PO QD) was 0.00% and the “Rat body weight” value ([2]; Day −1, 100 mg/kg PO QD) was 189.92 g. The “Weight change rate (%)” value ([2]; Day −1, 100 mg/kg PO QD) was 0.00%, the “effect on NMO-IgG-induced neuromyelitis optica in mice” value [3] was “certain inhibitory effect” and the “immune parameter CD45” value [3] was “no significant effect”. For the same compound, the “immune parameter IBA1” value [3] was “no significant effect”, the “lesion ratio of AQP4” value ([3]; vs control group) was “significantly reduce the lesion ratio” and the “lesion ratio of GFAP” value ([3]; vs control group) was “significantly reduce the lesion ratio”. For the same compound, the “effects on DNBS-induced colitis in rats” value [4] was “certain prophylactic and therapeutic effects”, the “total score of colon tissue injury” value ([5]; 10 mg/kg (Test group 2#)) was “significantly reduce” and the “Pathological score, Distal end, Damage” value [5, 8] was 0.93. The “Pathological score, Distal end, Inflammation” value [5, 8] was 2.07, the “Pathological score, Proximal end, Damage” value [5, 8] was 0.47 and the “Pathological score, Proximal end, Inflammation” value [5, 8] was 1.60. For the same compound, the “Pathological score, Total score, Damage” value [5, 8] was 3.53, the “Pathological score, Total score, Inflammation” value [5, 8] was 6.07 and the “Pathological score, Ulcer end, Damage” value [5, 8] was 2.13. The “Pathological score, Ulcer end, Inflammation” value [5, 8] was 2.40 and the “positive effects of cocaine” value [6] was “inhibit the positive effects of cocaine”.
